{"source": "patent US11427869B2", "about": "“T cell balance gene expression, compositions of matters and methods of use thereof” (THE BROAD INSTITUTE, INC., priority 2015, dated 2022)", "system": "CD5L−/− Th17 cells", "assay": "Nanostring nCounter Th17 codeset (312 genes), PUFA- or control-treated CD5L−/− Th17 cells", "assay_type": "cell-based, mouse", "source_text": "Applicants studied the contribution of lipid saturation to Th17 cell pathogenicity. […] Applicants analyzed the expression of a 312 gene signature of Th17 cell differentiation and function (Yosef et al., 2013) in SFA- or control-treated WT Th17 cells and in PUFA- or control-treated CD5L−/− Th17 cells differentiated with TGF-81+IL-6.\nT cell differentiation culture. Naïve CD4+CD44−CD62L+CD25− T cells or Effector memory CD4+CD44+CD62L− were sorted using BD FACSAria sorter and activated with plate-bound anti-CD3 and anti-CD28 antibodies (both at 2 μg/ml) in the presence of cytokines at a concentration of 2.5×10^5 cells/ml. For Th17 differentiation: 2 ng/ml of rhTGFβ1, 2 ng/ml of rhTGFβ3, 25 ng/ml rmIL-6, 20 ng/ml rmIL-18 (all from Miltenyi Biotec) and 20 ng/ml rmIL-23 (R & D systems) were used at various combinations as specified in figures. For Th1 differentiation, 20 ng/ml rmIL-12 (R & D systems); for Th2 differentiation 20 ng/ml rmIL-4 (Miltenyi Biotec); for iTreg differentiation, 2.5 ng/ml of rhTGFβ1 were used (Miltenyi Biotec). For differentiation experiments, cells were harvested at 48 hours. For restimulation experiments, cells were differentiated for 48 hours and resuspended in fresh media with no additional cytokines for 48-72 hours. Cells were re-stimulated with PMA/ionomycin for four hours before analysis for cytokines by intracellular cytokine staining. For experiments with exogenous fatty acid, fatty acids were purchased and resuspended first with serum-free media containing BSA prior being added to culture.\nNanostring nCounter. Nanostring nCounter platform (NanoString Technologies) is used to measure the number of RNA transcripts in RNA samples (FIG. 16I, FIG. 18D). A codeset containing 312 signature genes of Th17 cell differentiation and function as well as 4 additional house-keeping genes were custom-made (Yosef et al., 2013) and used in these experiments. Experimental procedures as detailed by the manufacturer is strictly followed."}
{"smiles": "CCCCC/C=C\\C/C=C\\C/C=C\\C/C=C\\CCCC(=O)O", "note": "[PUFA, arachidonic acid]", "values": [{"measurement": "Irf4 expression (Nanostring), normalized to WT", "setting": "CD5LKO Th17 cells + PUFA", "value": 0.65}, {"measurement": "Irf7 expression (Nanostring), normalized to WT", "setting": "CD5LKO Th17 cells + PUFA", "value": 1.17}, {"measurement": "Irf8 expression (Nanostring), normalized to WT", "setting": "CD5LKO Th17 cells + PUFA", "value": 1.29}, {"measurement": "Itga3 expression (Nanostring), normalized to WT", "setting": "CD5LKO Th17 cells + PUFA", "value": 0.76}, {"measurement": "Jak3 expression (Nanostring), normalized to WT", "setting": "CD5LKO Th17 cells + PUFA", "value": 1.27}, {"measurement": "Jun expression (Nanostring), normalized to WT", "setting": "CD5LKO Th17 cells + PUFA", "value": 0.64}, {"measurement": "Kat2b expression (Nanostring), normalized to WT", "setting": "CD5LKO Th17 cells + PUFA", "value": 1.22}, {"measurement": "Klf9 expression (Nanostring), normalized to WT", "setting": "CD5LKO Th17 cells + PUFA", "value": 0.75}, {"measurement": "Klf10 expression (Nanostring), normalized to WT", "setting": "CD5LKO Th17 cells + PUFA", "value": 1.30}, {"measurement": "Klrd1 expression (Nanostring), normalized to WT", "setting": "CD5LKO Th17 cells + PUFA", "value": 0.63}, {"measurement": "Lad1 expression (Nanostring), normalized to WT", "setting": "CD5LKO Th17 cells + PUFA", "value": 1.18}, {"measurement": "Lgals3bp expression (Nanostring), normalized to WT", "setting": "CD5LKO Th17 cells + PUFA", "value": 1.34}, {"measurement": "Litaf expression (Nanostring), normalized to WT", "setting": "CD5LKO Th17 cells + PUFA", "value": 0.61}, {"measurement": "Lpxn expression (Nanostring), normalized to WT", "setting": "CD5LKO Th17 cells + PUFA", "value": 1.39}, {"measurement": "Maf expression (Nanostring), normalized to WT", "setting": "CD5LKO Th17 cells + PUFA", "value": 0.84}, {"measurement": "Maff expression (Nanostring), normalized to WT", "setting": "CD5LKO Th17 cells + PUFA", "value": 0.77}, {"measurement": "Map3k5 expression (Nanostring), normalized to WT", "setting": "CD5LKO Th17 cells + PUFA", "value": 1.49}, {"measurement": "Mbnl3 expression (Nanostring), normalized to WT", "setting": "CD5LKO Th17 cells + PUFA", "value": 1.30}, {"measurement": "Mina expression (Nanostring), normalized to WT", "setting": "CD5LKO Th17 cells + PUFA", "value": 1.08}, {"measurement": "Mt1 expression (Nanostring), normalized to WT", "setting": "CD5LKO Th17 cells + PUFA", "value": 0.79}, {"measurement": "Mt2 expression (Nanostring), normalized to WT", "setting": "CD5LKO Th17 cells + PUFA", "value": 0.84}, {"measurement": "Nfkbie expression (Nanostring), normalized to WT", "setting": "CD5LKO Th17 cells + PUFA", "value": 1.52}, {"measurement": "Nkg7 expression (Nanostring), normalized to WT", "setting": "CD5LKO Th17 cells + PUFA", "value": 1.40}, {"measurement": "Notch2 expression (Nanostring), normalized to WT", "setting": "CD5LKO Th17 cells + PUFA", "value": 1.20}, {"measurement": "Oas2 expression (Nanostring), normalized to WT", "setting": "CD5LKO Th17 cells + PUFA", "value": 0.82}, {"measurement": "Peli2 expression (Nanostring), normalized to WT", "setting": "CD5LKO Th17 cells + PUFA", "value": 0.83}, {"measurement": "Plac8 expression (Nanostring), normalized to WT", "setting": "CD5LKO Th17 cells + PUFA", "value": 0.85}, {"measurement": "Plagl1 expression (Nanostring), normalized to WT", "setting": "CD5LKO Th17 cells + PUFA", "value": 1.07}, {"measurement": "Pmepa1 expression (Nanostring), normalized to WT", "setting": "CD5LKO Th17 cells + PUFA", "value": 1.19}, {"measurement": "Pou2af1 expression (Nanostring), normalized to WT", "setting": "CD5LKO Th17 cells + PUFA", "value": 0.86}, {"measurement": "Prkd3 expression (Nanostring), normalized to WT", "setting": "CD5LKO Th17 cells + PUFA", "value": 1.51}, {"measurement": "Pstpip1 expression (Nanostring), normalized to WT", "setting": "CD5LKO Th17 cells + PUFA", "value": 1.24}, {"measurement": "Rab33a expression (Nanostring), normalized to WT", "setting": "CD5LKO Th17 cells + PUFA", "value": 1.50}, {"measurement": "Rasgrp1 expression (Nanostring), normalized to WT", "setting": "CD5LKO Th17 cells + PUFA", "value": 1.21}, {"measurement": "Rel expression (Nanostring), normalized to WT", "setting": "CD5LKO Th17 cells + PUFA", "value": 0.73}, {"measurement": "Rela expression (Nanostring), normalized to WT", "setting": "CD5LKO Th17 cells + PUFA", "value": 0.96}, {"measurement": "Rfk expression (Nanostring), normalized to WT", "setting": "CD5LKO Th17 cells + PUFA", "value": 1.07}, {"measurement": "Rorc expression (Nanostring), normalized to WT", "setting": "CD5LKO Th17 cells + PUFA", "value": 1.52}, {"measurement": "Sap30 expression (Nanostring), normalized to WT", "setting": "CD5LKO Th17 cells + PUFA", "value": 0.81}, {"measurement": "Sema7a expression (Nanostring), normalized to WT", "setting": "CD5LKO Th17 cells + PUFA", "value": 1.04}, {"measurement": "Serpinb1a expression (Nanostring), normalized to WT", "setting": "CD5LKO Th17 cells + PUFA", "value": 0.77}, {"measurement": "Ski expression (Nanostring), normalized to WT", "setting": "CD5LKO Th17 cells + PUFA", "value": 0.86}, {"measurement": "Slc6a6 expression (Nanostring), normalized to WT", "setting": "CD5LKO Th17 cells + PUFA", "value": 1.03}, {"measurement": "Smad3 expression (Nanostring), normalized to WT", "setting": "CD5LKO Th17 cells + PUFA", "value": 1.03}, {"measurement": "Socs3 expression (Nanostring), normalized to WT", "setting": "CD5LKO Th17 cells + PUFA", "value": 1.38}, {"measurement": "Spp1 expression (Nanostring), normalized to WT", "setting": "CD5LKO Th17 cells + PUFA", "value": 0.66}, {"measurement": "Spry1 expression (Nanostring), normalized to WT", "setting": "CD5LKO Th17 cells + PUFA", "value": 1.02}, {"measurement": "Stat4 expression (Nanostring), normalized to WT", "setting": "CD5LKO Th17 cells + PUFA", "value": 1.21}, {"measurement": "Stat5b expression (Nanostring), normalized to WT", "setting": "CD5LKO Th17 cells + PUFA", "value": 1.19}, {"measurement": "Stat6 expression (Nanostring), normalized to WT", "setting": "CD5LKO Th17 cells + PUFA", "value": 1.13}, {"measurement": "Sult2b1 expression (Nanostring), normalized to WT", "setting": "CD5LKO Th17 cells + PUFA", "value": 0.61}, {"measurement": "Tal2 expression (Nanostring), normalized to WT", "setting": "CD5LKO Th17 cells + PUFA", "value": 1.52}, {"measurement": "Tcf4 expression (Nanostring), normalized to WT", "setting": "CD5LKO Th17 cells + PUFA", "value": 1.29}, {"measurement": "Tgfb1 expression (Nanostring), normalized to WT", "setting": "CD5LKO Th17 cells + PUFA", "value": 0.68}, {"measurement": "Tgfb3 expression (Nanostring), normalized to WT", "setting": "CD5LKO Th17 cells + PUFA", "value": 1.67}, {"measurement": "Tgfbr3 expression (Nanostring), normalized to WT", "setting": "CD5LKO Th17 cells + PUFA", "value": 0.94}, {"measurement": "Tgm2 expression (Nanostring), normalized to WT", "setting": "CD5LKO Th17 cells + PUFA", "value": 1.51}, {"measurement": "Tmem229b expression (Nanostring), normalized to WT", "setting": "CD5LKO Th17 cells + PUFA", "value": 1.52}, {"measurement": "Tnfrsf4 expression (Nanostring), normalized to WT", "setting": "CD5LKO Th17 cells + PUFA", "value": 1.05}, {"measurement": "Tnip2 expression (Nanostring), normalized to WT", "setting": "CD5LKO Th17 cells + PUFA", "value": 0.78}, {"measurement": "Trat1 expression (Nanostring), normalized to WT", "setting": "CD5LKO Th17 cells + PUFA", "value": 0.85}, {"measurement": "Trim25 expression (Nanostring), normalized to WT", "setting": "CD5LKO Th17 cells + PUFA", "value": 1.17}, {"measurement": "Trps1 expression (Nanostring), normalized to WT", "setting": "CD5LKO Th17 cells + PUFA", "value": 1.44}, {"measurement": "Tsc22d3 expression (Nanostring), normalized to WT", "setting": "CD5LKO Th17 cells + PUFA", "value": 0.66}, {"measurement": "Ubiad1 expression (Nanostring), normalized to WT", "setting": "CD5LKO Th17 cells + PUFA", "value": 1.16}, {"measurement": "Vav3 expression (Nanostring), normalized to WT", "setting": "CD5LKO Th17 cells + PUFA", "value": 1.20}, {"measurement": "Xrcc5 expression (Nanostring), normalized to WT", "setting": "CD5LKO Th17 cells + PUFA", "value": 1.27}, {"measurement": "nrp1 expression (Nanostring), normalized to WT", "setting": "CD5LKO Th17 cells + PUFA", "value": 0.90}, {"measurement": "pou2f1 expression (Nanostring), normalized to WT", "setting": "CD5LKO Th17 cells + PUFA", "value": 0.66}, {"measurement": "transcriptional signature (312 gene Th17 codeset, genes >1.5 fold)", "setting": "PUFA-treated CD5L−/− Th17 cells, TGF-β1+IL-6", "value": "resemble WT non-pathogenic Th17 cells"}]}
